Test results as given in ChEMBL document CHEMBL1201862, “PubChem BioAssay data set” (2004).
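Method: 48-hour compound exposure of cells in 96-well plates, five concentrations, linear interpolation of endpoints. GI50: concentration for 50% inhibition of growth.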 Active and inactive are the calls of the source. Rule as the data show it: active = GI50 up to about 1.1 µM and inactive = higher.

Assays:
Assay in all cases: inhibition of tumour cell growth, NCI panel, 48 h
NCI-H23 = tested on: NCI-H23
M14 = tested on: M14
KM12 = tested on: KM12
U-251 = tested on: U-251
Hs-578T = tested on: Hs-578T
OVCAR-3 = tested on: OVCAR-3
ACHN = tested on: ACHN
MDA-MB-435 = tested on: MDA-MB-435
SR = tested on: SR
SK-MEL-28 = tested on: SK-MEL-28
BT-549 = tested on: BT-549
CAKI-1 = tested on: CAKI-1
HOP-62 = tested on: HOP-62
NCI/ADR-RES = tested on: NCI/ADR-RES
SNB-75 = tested on: SNB-75
MDA-MB-231 = tested on: MDA-MB-231
MDA-N = tested on: MDA-N
SF-268 = tested on: SF-268
NCI-H522 = tested on: NCI-H522
DLD-1 = tested on: DLD-1

SMILES	GI50 (NCI-H23)	GI50 (M14)	GI50 (KM12)	GI50 (U-251)	GI50 (Hs-578T)	GI50 (OVCAR-3)	GI50 (ACHN)	GI50 (MDA-MB-435)	GI50 (SR)	GI50 (SK-MEL-28)	GI50 (BT-549)	GI50 (CAKI-1)	GI50 (HOP-62)	GI50 (NCI/ADR-RES)	GI50 (SNB-75)	GI50 (MDA-MB-231)	GI50 (MDA-N)	GI50 (SF-268)	GI50 (NCI-H522)	GI50 (DLD-1)
CN(C)CS/C(N)=N\C(O)C(Cl)(Cl)Cl (configuration not stated)	> 100 µM (inactive)	> 100 µM (inactive)	> 100 µM (inactive)	> 100 µM (inactive)	> 100 µM (inactive)	> 100 µM (inactive)	> 100 µM (inactive)	> 100 µM (inactive)	82.2 µM (inactive)	> 100 µM (inactive)	> 100 µM (inactive)	> 100 µM (inactive)	> 100 µM (inactive)	> 100 µM (inactive)	> 100 µM (inactive)	> 100 µM (inactive)	> 100 µM (inactive)	> 100 µM (inactive)	> 100 µM (inactive)	–
N/N=C1\C(=O)N(C2CCCCCC2)C(=O)C1C(=O)NC1CCCCCC1 (configuration not stated)	22.4 µM (inactive)	35 µM (inactive)	39.5 µM (inactive)	15.8 µM (inactive)	–	32.4 µM (inactive)	42.2 µM (inactive)	–	–	> 10 µM (inactive)	–	–	> 10 µM (inactive)	–	–	–	–	36.9 µM (inactive)	23.2 µM (inactive)	41.5 µM (inactive)
O=C(NCCc1ccc(F)cc1)c1cc(/C=C/c2cc(O)ccc2O)ccc1O	3.28 µM (inactive)	3.67 µM (inactive)	6.05 µM (inactive)	2.1 µM (inactive)	4.26 µM (inactive)	2.56 µM (inactive)	2.01 µM (inactive)	3.78 µM (inactive)	2.96 µM (inactive)	3.21 µM (inactive)	1.44 µM (inactive)	3.03 µM (inactive)	6.11 µM (inactive)	2.69 µM (inactive)	4.57 µM (inactive)	3.3 µM (inactive)	3.05 µM (inactive)	3.47 µM (inactive)	1.52 µM (inactive)	–
CC(=O)Oc1c2ccsc2c(OC(C)=O)c2ccsc12	0.269 µM (active)	0.269 µM (active)	1.67 µM (inactive)	0.869 µM (active)	0.354 µM (active)	0.417 µM (active)	0.667 µM (active)	0.179 µM (active)	0.317 µM (active)	0.329 µM (active)	0.384 µM (active)	2.11 µM (inactive)	1.27 µM (inactive)	0.284 µM (active)	0.286 µM (active)	1.29 µM (inactive)	0.12 µM (active)	0.906 µM (active)	0.483 µM (active)	–
Cc1cc(-c2cc(C(C)(C)C)c(O)c(C(C)(C)C)c2)c(C)cc1-c1cc(C(C)(C)C)c(O)c(C(C)(C)C)c1	> 100 µM (inactive)	> 100 µM (inactive)	> 100 µM (inactive)	> 100 µM (inactive)	> 100 µM (inactive)	> 100 µM (inactive)	> 100 µM (inactive)	13.6 µM (inactive)	41.2 µM (inactive)	> 100 µM (inactive)	> 100 µM (inactive)	> 100 µM (inactive)	> 100 µM (inactive)	> 100 µM (inactive)	> 100 µM (inactive)	> 100 µM (inactive)	> 100 µM (inactive)	> 100 µM (inactive)	> 100 µM (inactive)	–
O/N=N/c1ccc2ccccc2n1	> 100 µM (inactive)	> 100 µM (inactive)	> 100 µM (inactive)	> 100 µM (inactive)	> 100 µM (inactive)	> 100 µM (inactive)	> 100 µM (inactive)	> 100 µM (inactive)	> 100 µM (inactive)	> 100 µM (inactive)	> 100 µM (inactive)	> 100 µM (inactive)	> 100 µM (inactive)	> 100 µM (inactive)	75.5 µM (inactive)	> 100 µM (inactive)	> 100 µM (inactive)	> 100 µM (inactive)	> 100 µM (inactive)	–
COc1cccc(C(=O)C(O)c2cccc(OC)c2OC)c1OC (configuration not stated)	> 100 µM (inactive)	> 100 µM (inactive)	> 100 µM (inactive)	> 100 µM (inactive)	> 100 µM (inactive)	> 100 µM (inactive)	> 100 µM (inactive)	> 100 µM (inactive)	> 100 µM (inactive)	> 100 µM (inactive)	> 100 µM (inactive)	> 100 µM (inactive)	> 100 µM (inactive)	> 100 µM (inactive)	> 100 µM (inactive)	> 100 µM (inactive)	> 100 µM (inactive)	> 100 µM (inactive)	> 100 µM (inactive)	–
CCCN(CCC)c1c([N+](=O)[O-])cc(C(=O)N(C)C)cc1[N+](=O)[O-]	53.2 µM (inactive)	96.6 µM (inactive)	> 100 µM (inactive)	86.5 µM (inactive)	–	75 µM (inactive)	16.4 µM (inactive)	–	–	> 100 µM (inactive)	–	> 100 µM (inactive)	–	–	17 µM (inactive)	–	–	> 100 µM (inactive)	62.1 µM (inactive)	> 100 µM (inactive)
CO[C@H]1O[C@@H]2CO[C@@H](c3ccccc3)O[C@H]2C[C@]12CCC/C=C\CO2	21.1 µM (inactive)	15.8 µM (inactive)	29.5 µM (inactive)	12.6 µM (inactive)	16.4 µM (inactive)	12.7 µM (inactive)	15.5 µM (inactive)	12.2 µM (inactive)	13.7 µM (inactive)	13.4 µM (inactive)	12.6 µM (inactive)	25.9 µM (inactive)	16.9 µM (inactive)	21 µM (inactive)	22.5 µM (inactive)	16.7 µM (inactive)	14.1 µM (inactive)	14.4 µM (inactive)	11.5 µM (inactive)	–
Cc1c(C2=C(Br)C(=O)N(C)C2=O)c(=O)n(C)c(=O)n1C	20.7 µM (inactive)	35.1 µM (inactive)	> 100 µM (inactive)	63.1 µM (inactive)	> 100 µM (inactive)	37.2 µM (inactive)	26.7 µM (inactive)	24.9 µM (inactive)	23.1 µM (inactive)	39.4 µM (inactive)	24.3 µM (inactive)	19 µM (inactive)	> 100 µM (inactive)	27.8 µM (inactive)	> 100 µM (inactive)	25.2 µM (inactive)	28.1 µM (inactive)	43.5 µM (inactive)	13.6 µM (inactive)	–
O=c1[nH]nc(Cc2ccc(Cl)cc2)n1/N=C\CC/C=N\n1c(Cc2ccc(Cl)cc2)n[nH]c1=O	32.3 µM (inactive)	32.8 µM (inactive)	> 100 µM (inactive)	16.4 µM (inactive)	11.4 µM (inactive)	> 100 µM (inactive)	56 µM (inactive)	> 53.6 µM (inactive)	3.1 µM (inactive)	23.6 µM (inactive)	12.2 µM (inactive)	> 56 µM (inactive)	8.83 µM (inactive)	22.2 µM (inactive)	7.96 µM (inactive)	25.8 µM (inactive)	> 50.9 µM (inactive)	13.5 µM (inactive)	25.1 µM (inactive)	–
CN1C(=O)C(C)(C)NS1(=O)=O	> 100 µM (inactive)	> 100 µM (inactive)	> 100 µM (inactive)	> 100 µM (inactive)	–	> 100 µM (inactive)	> 100 µM (inactive)	–	–	> 100 µM (inactive)	–	> 100 µM (inactive)	> 100 µM (inactive)	–	> 100 µM (inactive)	–	–	> 100 µM (inactive)	–	> 100 µM (inactive)
Cc1cc2c(=O)cc(-c3ccc(Cl)c(Cl)c3)oc2c(C(=O)O)c1C	> 100 µM (inactive)	> 100 µM (inactive)	> 100 µM (inactive)	> 100 µM (inactive)	–	> 100 µM (inactive)	> 100 µM (inactive)	–	–	> 100 µM (inactive)	–	> 100 µM (inactive)	–	–	92.3 µM (inactive)	–	–	> 100 µM (inactive)	> 100 µM (inactive)	> 100 µM (inactive)
CC1=NN(c2nc(N)nc(/C(C#N)=C\c3ccc(-c4ccc([N+](=O)[O-])cc4)o3)n2)C(C)(C)C1	> 100 µM (inactive)	> 100 µM (inactive)	> 100 µM (inactive)	39.5 µM (inactive)	62.2 µM (inactive)	> 100 µM (inactive)	> 100 µM (inactive)	> 100 µM (inactive)	11.1 µM (inactive)	> 100 µM (inactive)	> 100 µM (inactive)	> 100 µM (inactive)	1.78 µM (inactive)	> 100 µM (inactive)	14.2 µM (inactive)	27.5 µM (inactive)	> 100 µM (inactive)	65.5 µM (inactive)	> 100 µM (inactive)	–
CCn1cc2c(=O)n3ncn(-c4ccc(Br)cc4)c3nc2n1	> 100 µM (inactive)	> 100 µM (inactive)	> 100 µM (inactive)	58.1 µM (inactive)	29.9 µM (inactive)	> 100 µM (inactive)	> 100 µM (inactive)	> 100 µM (inactive)	> 100 µM (inactive)	> 100 µM (inactive)	> 100 µM (inactive)	0.942 µM (active)	38.5 µM (inactive)	> 100 µM (inactive)	21 µM (inactive)	40.6 µM (inactive)	> 100 µM (inactive)	> 100 µM (inactive)	> 100 µM (inactive)	–
Cc1cc(N(CCC#N)CCC#N)ccc1/C=C(\NC(=O)/C=C/c1ccccc1)NC(=O)Nc1ccc(Cl)cc1	22.2 µM (inactive)	> 100 µM (inactive)	15 µM (inactive)	14.3 µM (inactive)	–	80.5 µM (inactive)	7.28 µM (inactive)	–	–	> 100 µM (inactive)	–	19.2 µM (inactive)	–	–	–	–	–	62.2 µM (inactive)	–	75 µM (inactive)
c1cncc(C2N3CCCCC3[C@@H]3c4[nH]c5ccccc5c4CCN23)c1 (some centres not stated)	> 100 µM (inactive)	> 100 µM (inactive)	–	> 100 µM (inactive)	–	> 100 µM (inactive)	> 100 µM (inactive)	–	–	> 100 µM (inactive)	–	> 100 µM (inactive)	> 100 µM (inactive)	–	> 100 µM (inactive)	–	–	> 100 µM (inactive)	–	> 100 µM (inactive)
